Holding throughout (assay): relative viability (nuclei count vs DMSO), 5 days (fraction); higher = more cells survive
Compound in one assay: C1CCC(CC1)N(CCNCCC2=C3C(=C(C=C2)O)NC(=O)CO3)C(=O)CCNCCC4=CC(=C(C=C4)Cl)Cl [AZ505]
The gist of the method:
(§1)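 MetaXpress counted nuclei in 4× images of lung cancer cell lines that had been fixed, permeabilised and Hoechst-stained in one step. Before that, cells in 1536-well plates were kept overnight at 37 °C, pinned with five √10-spaced library-drug doses on vehicle-anchored plates, and cultured 5 days without medium change. Viability takes treated-well nuclei over vehicle-well nuclei and uses the median across plates. Plates were accepted only at control CV below 25% and at least one doubling.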

Compound in the next assay: Cn1c(=O)n(-c2ccc(C(C)(C)C#N)cc2)c2c3cc(-c4cnc5ccccc5c4)ccc3ncc21 [Dactolisib]
The method, boiled down: as §1

Compound in the assay “AZ505 + Alpelisib”: C1CCC(CC1)N(CCNCCC2=C3C(=C(C=C2)O)NC(=O)CO3)C(=O)CCNCCC4=CC(=C(C=C4)Cl)Cl [AZ505] + Cc1nc(NC(=O)N2CCC[C@H]2C(N)=O)sc1-c1ccnc(C(C)(C)C(F)(F)F)c1 [Alpelisib] (partner 2 µM)
The method, boiled down:
(§2)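 Relative viability divides the nuclei count in treated wells by that in vehicle wells. Lung cancer cell lines were seeded in 1536-well plates, dosed by pin tool the next day, and fixed and stained after 5 days in one step with final 0.05% Triton X-100, 1% formaldehyde and 1 ug/ml Hoechst. Dosing was a single drug or a fixed anchor-drug dose plus five library-drug doses (not always all listed) in √10 steps, and values are medians of duplicate plates imaged at 4×.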

Compound in the assay “Dactolisib + Pemetrexed”: Cn1c(=O)n(-c2ccc(C(C)(C)C#N)cc2)c2c3cc(-c4cnc5ccccc5c4)ccc3ncc21 [Dactolisib] + Nc1nc2[nH]cc(CCc3ccc(C(=O)N[C@@H](CCC(=O)O)C(=O)O)cc3)c2c(=O)[nH]1 [Pemetrexed] (partner 0.2 µM)
The gist of the method: as §2

As to NCI-H3122, the relative viability with AZ505 (0.08 µM) came to 0.972; with AZ505 (0.253 µM), 1.01; in the assay with AZ505 (0.8 µM) it was 0.975; with AZ505 (2.53 µM), 0.931; in the assay with AZ505 (8 µM) it was 1.02; in the assay with Dactolisib (0.002 µM), 0.993. The relative viability with Dactolisib (0.006325 µM) worked out at 1.01; in the assay with Dactolisib (0.02 µM) it was 0.981; with Dactolisib (0.06325 µM) it was 0.99; with Dactolisib (0.2 µM), 0.751; with AZ505 + Alpelisib (first compound 0.08 µM), 0.79; with AZ505 + Alpelisib (first compound 0.253 µM) it was 0.677. Besides, the relative viability came to 0.772 with AZ505 + Alpelisib (first compound 0.8 µM); 0.721 with AZ505 + Alpelisib (first compound 2.53 µM); 0.836 with AZ505 + Alpelisib (first compound 8 µM); 0.171 with Dactolisib + Pemetrexed (first compound 0.002 µM); 0.189 with Dactolisib + Pemetrexed (first compound 0.006325 µM); 0.203 with Dactolisib + Pemetrexed (first compound 0.02 µM). For the same cell line, the relative viability is 0.192 with Dactolisib + Pemetrexed (first compound 0.06325 µM) and 0.211 in the assay with Dactolisib + Pemetrexed (first compound 0.2 µM).

Regarding PC-14, the relative viability with AZ505 (0.08 µM) is 0.915; with AZ505 (0.253 µM), 0.96; with AZ505 (0.8 µM), 0.947; with AZ505 (2.53 µM), 0.955; with AZ505 (8 µM) it was 1.04; with Dactolisib (0.002 µM) it was 1.05. Further, the relative viability in the assay with Dactolisib (0.006325 µM) is 1.01; with Dactolisib (0.02 µM) it was 0.836; with Dactolisib (0.06325 µM), 0.33; with Dactolisib (0.2 µM), 0.182; in the assay with AZ505 + Alpelisib (first compound 0.08 µM), 0.81; with AZ505 + Alpelisib (first compound 0.253 µM), 0.964. Besides, the relative viability with AZ505 + Alpelisib (first compound 0.8 µM) was found to be 0.925; in the assay with AZ505 + Alpelisib (first compound 2.53 µM), 0.906; with AZ505 + Alpelisib (first compound 8 µM) it was 0.961; with Dactolisib + Pemetrexed (first compound 0.002 µM) it was 0.0904; in the assay with Dactolisib + Pemetrexed (first compound 0.006325 µM) it was 0.129; in the assay with Dactolisib + Pemetrexed (first compound 0.02 µM) it was 0.192. Also, the relative viability in the assay with Dactolisib + Pemetrexed (first compound 0.06325 µM) amounted to 0.197; in the assay with Dactolisib + Pemetrexed (first compound 0.2 µM), 0.145.

On to NCI-H2347, for which the relative viability was 0.643 with AZ505 (0.08 µM); 0.759 with AZ505 (0.253 µM); 0.738 in the assay with AZ505 (0.8 µM); 0.589 with AZ505 (2.53 µM); 0.833 in the assay with AZ505 (8 µM); 1.27 with Dactolisib (0.002 µM). Moreover, the relative viability was found to be 0.971 with Dactolisib (0.006325 µM); 0.958 with Dactolisib (0.02 µM); 0.771 with Dactolisib (0.06325 µM); 0.517 with Dactolisib (0.2 µM); 0.558 with AZ505 + Alpelisib (first compound 0.08 µM); 0.591 with AZ505 + Alpelisib (first compound 0.253 µM). The relative viability stood at 0.643 with AZ505 + Alpelisib (first compound 0.8 µM); 0.522 with AZ505 + Alpelisib (first compound 2.53 µM); 0.714 with AZ505 + Alpelisib (first compound 8 µM); 0.459 with Dactolisib + Pemetrexed (first compound 0.002 µM); 0.459 in the assay with Dactolisib + Pemetrexed (first compound 0.006325 µM); 0.426 in the assay with Dactolisib + Pemetrexed (first compound 0.02 µM). Further, the results for the relative viability with Dactolisib + Pemetrexed (first compound 0.06325 µM) and with Dactolisib + Pemetrexed (first compound 0.2 µM) were 0.411 and 0.422, respectively.

Turning to NCI-H2228, the relative viability with AZ505 (0.08 µM) amounted to 0.897; with AZ505 (0.253 µM), 0.859; with AZ505 (0.8 µM), 0.821; in the assay with AZ505 (2.53 µM), 1.07; with AZ505 (8 µM), 0.885; with Dactolisib (0.002 µM), 1.13. In addition, the relative viability with Dactolisib (0.006325 µM) stood at 0.812; in the assay with Dactolisib (0.02 µM), 0.612; with Dactolisib (0.06325 µM), 0.38; with Dactolisib (0.2 µM), 0.197; with AZ505 + Alpelisib (first compound 0.08 µM), 0.627; in the assay with AZ505 + Alpelisib (first compound 0.253 µM) it was 0.554. For the same cell line, the relative viability with AZ505 + Alpelisib (first compound 0.8 µM) amounted to 0.677; in the assay with AZ505 + Alpelisib (first compound 2.53 µM), 0.69; in the assay with AZ505 + Alpelisib (first compound 8 µM), 0.748; with Dactolisib + Pemetrexed (first compound 0.002 µM), 0.35; with Dactolisib + Pemetrexed (first compound 0.006325 µM), 0.352; with Dactolisib + Pemetrexed (first compound 0.02 µM), 0.324. The results for the relative viability with Dactolisib + Pemetrexed (first compound 0.06325 µM) and with Dactolisib + Pemetrexed (first compound 0.2 µM) were 0.252 and 0.144, respectively.

For the cell line NCI-H1563, the relative viability worked out at 0.998 with AZ505 (0.08 µM); 1.04 with AZ505 (0.253 µM); 0.968 with AZ505 (0.8 µM); 0.93 with AZ505 (2.53 µM); 0.939 in the assay with AZ505 (8 µM); 1 in the assay with Dactolisib (0.002 µM). Also, the relative viability with Dactolisib (0.006325 µM) is 0.928; in the assay with Dactolisib (0.02 µM), 0.885; with Dactolisib (0.06325 µM) it was 0.605; with Dactolisib (0.2 µM) it was 0.562; with AZ505 + Alpelisib (first compound 0.08 µM), 0.932; with AZ505 + Alpelisib (first compound 0.253 µM) it was 0.911. Further, the relative viability was found to be 0.873 with AZ505 + Alpelisib (first compound 0.8 µM); 0.886 in the assay with AZ505 + Alpelisib (first compound 2.53 µM); 0.915 in the assay with AZ505 + Alpelisib (first compound 8 µM); 0.797 with Dactolisib + Pemetrexed (first compound 0.002 µM); 0.751 with Dactolisib + Pemetrexed (first compound 0.006325 µM); 0.755 with Dactolisib + Pemetrexed (first compound 0.02 µM). Besides, the results for the relative viability with Dactolisib + Pemetrexed (first compound 0.06325 µM) and with Dactolisib + Pemetrexed (first compound 0.2 µM) were 0.628 and 0.512, respectively.

For the cell line NCI-H1793, the relative viability in the assay with AZ505 (0.08 µM) came to 0.805; in the assay with AZ505 (0.253 µM) it was 0.883; in the assay with AZ505 (0.8 µM) it was 0.83; in the assay with AZ505 (2.53 µM) it was 0.768; with AZ505 (8 µM), 0.976; with Dactolisib (0.002 µM), 0.807. For the same cell line, the relative viability with Dactolisib (0.006325 µM) came out at 0.569; with Dactolisib (0.02 µM) it was 0.474; with Dactolisib (0.06325 µM), 0.242; in the assay with Dactolisib (0.2 µM), 0.241; with AZ505 + Alpelisib (first compound 0.08 µM), 0.734; with AZ505 + Alpelisib (first compound 0.253 µM) it was 0.804. In addition, the relative viability with AZ505 + Alpelisib (first compound 0.8 µM) worked out at 0.827; in the assay with AZ505 + Alpelisib (first compound 2.53 µM), 0.844; with AZ505 + Alpelisib (first compound 8 µM), 0.881; with Dactolisib + Pemetrexed (first compound 0.002 µM), 0.751; in the assay with Dactolisib + Pemetrexed (first compound 0.006325 µM) it was 0.409; with Dactolisib + Pemetrexed (first compound 0.02 µM), 0.266. The relative viability with Dactolisib + Pemetrexed (first compound 0.06325 µM) came out at 0.214; with Dactolisib + Pemetrexed (first compound 0.2 µM), 0.168.

(Values after the supplement of paper PMC10307832.)
